# Laboratory results as given in patent US20250332112A1, “IONIZABLE CATIONIC LIPIDS FOR LIPID NANOPARTICLES” (GENEVANT SCIENCES GMBH, priority 2022, published 2025).
# How the values were obtained:
# [1] = Particle characteristics of LNPs containing EGFP mRNA and novel ionizable lipids; format: physicochemical; conditions: EGFP mRNA LNP 1.6:54.6:32.8:10.9
# Outline: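 LNPs of PEG-lipid, ionizable lipid, cholesterol and phospholipid in ethanol were mixed 1:1 with mRNA in 100 mM acetate pH 5 via T-junction, diluted in PBS, dialysed, concentrated to ~0.6 mg/mL and exchanged into 5 mM Tris, 10% sucrose, pH 8. Size and polydispersity by Zetasizer; nucleic acid by RiboGreen.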
# [2] = test system: luciferase activity in the liver; test: Luciferase activity in liver after intravenous luciferase mRNA LNP; format: in vivo; conditions: 0.5 mg/kg IV, 6 h post-IV administration, BALB/c mice (n = 4)
# [3] = test system: human OTC expression in the liver; test: Dose response of human OTC mRNA LNP, OTC expression in liver (ELISA); format: in vivo; conditions: 24 h, male C57BL/6 mice (n = 4)
# Description: (§1) LNP formulations encapsulating ornithine transcarbamylase mRNA were injected intravenously at the specified dose levels to male C57BL/6 mice (6-8 weeks old).
# Liver homogenates were prepared with PBS, Halt protease inhibitor cocktail and FastPrep homogenization, standardized to 2 mg/mL protein with a BCA Protein Assay, and then analyzed by ELISA. Briefly, samples were diluted with PBS and plated on Nunc Maxisorp plates. A standard curve using human […] protein was prepared from the naïve animal controls (vehicle). After 2 h incubation the plates were washed, and the primary antibody was added. After 1 h incubation, the secondary antibody was added and incubated for another hour. After washing, TMB Substrate was added for color development and the reaction was stopped with 2 N sulfuric acid. The plate was read at 450/570 OD.
# At 24 h post-dose, the novel lipid formulations reported dose-dependent increases in human OTC expression in the liver (Table 15).
# [4] = Parent ionizable lipid remaining in liver at 6 h after luciferase mRNA LNP (LC-MS); format: in vivo; conditions: 6 h after IV 0.5 mg/kg Luciferase mRNA LNP
# [5] = Lipid clearance from liver over time after human OTC mRNA LNP (LC-MS); format: in vivo; conditions: IV 0.5 mg/kg human OTC mRNA LNP, male C57BL/6 mice (n = 4)
# Description: as §1
# (§2) Liver tissues were treated with PBS and homogenized with a FastPrep machine, 3 cycles of 5 m/s×15 s. Homogenates from the PBS-treated control animals was pooled and used for standard curve preparation. Samples were extracted into a deep well plate with 250 μL of an internal suitability standard. Plates were centrifuged for 15 min at 4° C. and 2000 rpm. Analysis was performed using an Agilent 6520 QTOF coupled to an Agilent 1290 UHPLC, using reverse-phase LC separation. Quantitation of the ionizable lipid was by MS/MS against a calibration curve spiked into appropriately matched blank matrix. Calibration used a similar class of synthetic lipid as internal standard.
# At various timepoints post-dose, lipid levels were assessed in the liver. Some novel ionizable lipids reported more rapid clearance rates compared to the benchmark (Table 19).
# [6] = test system: EGFP expression in the liver; test: Dose response of EGFP mRNA LNP, EGFP expression in liver; format: in vivo; conditions: 24 h, female BALB/c mice (n = 4)
# Description: At 24 h post-dose, the novel lipid formulations reported dose-dependent increases in EGFP expression in the liver (Table 32).
# [7] = Lipid clearance from liver over time after EGFP mRNA LNP (LC-MS); format: in vivo; conditions: IV 0.5 mg/kg EGFP mRNA LNP, female BALB/c mice (n = 4)
# Description: as §2
# At various timepoints post-dose, lipid levels were assessed in the liver. Some novel ionizable lipids reported more rapid clearance rates compared to the benchmark (Table 33).
# [8] = test system: EGFP expression in the liver; test: EGFP expression in liver after intravenous EGFP mRNA LNP (ELISA); conditions: 0.5 mg/kg IV, 24 h post-IV administration, BALB/c mice (n = 4)
# Description: LNP formulations encapsulating enhanced green fluorescent protein mRNA were injected intravenously at 0.5 mg/kg to female BALB/c mice (6-8 weeks old). On day of injection, the LNP stocks were filtered and diluted to the required dosing concentration with phosphate buffered saline. At 24 hours post-administration, animals were anaesthetized with a lethal dosage of ketamine/xylazine. Liver samples (left lateral lobe) were collected, weighed, and flash frozen in liquid nitrogen. Liver samples were stored in FastPrep® tubes at −80° C. until analyzed for EGFP expression.
# Liver homogenates were prepared in cell extraction buffer, diluted, and analyzed for EGFP protein levels using ELISA, according to manufacturer's instructions (Abcam, GFP ELISA Kit).
smiles,measurement,setting,value
"CCCCC/C=C\CCCC(CCC/C=C\CCCCC)C(CCC/C=C\CCCCC)OC(=O)CCCCN(C)C (centres unmarked) [Compound 13-B43, reference compound]",Final Product % EE,[1]; Table 20,98%
same,Final Product PDI,[1]; Table 20,0.07
same,Final Product Z-avg,[1]; Table 20,75 nm
same,Final Product % EE,[1]; Table 21,97%
same,Final Product PDI,[1]; Table 21,0.08
same,Final Product Z-avg,[1]; Table 21,75 nm
same,Final Product % EE,[1]; Table 22,97%
same,Final Product PDI,[1]; Table 22,0.08
same,Final Product Z-avg,[1]; Table 22,73 nm
same,Final Product % EE,[1]; Table 23,98%
same,Final Product PDI,[1]; Table 23,0.15
same,Final Product Z-avg,[1]; Table 23,76 nm
same,Luc Activity,[2]; Table 8,5.94E+07 pg/g liver
same,Luc Activity,[2]; Table 9,7.29E+07 pg/g liver
same,Luc Activity,[2]; Table 10,7.04E+07 pg/g liver
same,Luc Activity,[2]; Table 11,6.86E+07 pg/g liver
same,Luc Activity,[2]; Table 12,7.83E+07 pg/g liver
same,Luc Activity,[2]; Table 13,7.60E+07 pg/g liver
same,Luc Activity,[2]; Table 14,6.02E+07 pg/g liver
same,Human OTC expression,[3]; 0.3 mg/kg IV,908 ng hOTC/mg protein in liver
same,Human OTC expression,[3]; 1 mg/kg IV,6651 ng hOTC/mg protein in liver
same,Human OTC expression,[3]; 3 mg/kg IV,12413 ng hOTC/mg protein in liver
same,"Parent ionizable lipid remaining in liver, Average","[4]; Table 16, female BALB/c mice (n = 4)",22.64 nmol/g liver
same,"Parent ionizable lipid remaining in liver, Average","[4]; Table 17, female mice (n = 4)",43.87 nmol/g liver
same,"Parent ionizable lipid remaining in liver, Average","[4]; Table 18, female BALB/c mice (n = 4)",63.32 nmol/g liver
same,"Parent ionizable lipid remaining in liver, Average",[5]; 0.25 h post-dose,29.17 nmol/g liver
same,"Parent ionizable lipid remaining in liver, Average",[5]; 1 h post-dose,46.37 nmol/g liver
same,"Parent ionizable lipid remaining in liver, Average",[5]; 3 h post-dose,63.61 nmol/g liver
same,"Parent ionizable lipid remaining in liver, Average",[5]; 6 h post-dose,45.23 nmol/g liver
same,"Parent ionizable lipid remaining in liver, Average",[5]; 24 h post-dose,40.01 nmol/g liver
same,"Parent ionizable lipid remaining in liver, Average",[5]; 168 h post-dose,34.42 nmol/g liver
same,EGFP expression,[6]; 0.3 mg/kg IV,3.65e+07 pg EGFP/g liver
same,EGFP expression,[6]; 1 mg/kg IV,1.88e+08 pg EGFP/g liver
same,EGFP expression,[6]; 3 mg/kg IV,4.4e+08 pg EGFP/g liver
same,"Parent ionizable lipid remaining in liver, Average",[7]; 0.25 h post-dose,29.8 nmol/g liver
same,"Parent ionizable lipid remaining in liver, Average",[7]; 1 h post-dose,31.2 nmol/g liver
same,"Parent ionizable lipid remaining in liver, Average",[7]; 3 h post-dose,40.2 nmol/g liver
same,"Parent ionizable lipid remaining in liver, Average",[7]; 6 h post-dose,45.2 nmol/g liver
same,"Parent ionizable lipid remaining in liver, Average",[7]; 24 h post-dose,26.4 nmol/g liver
same,"Parent ionizable lipid remaining in liver, Average",[7]; 168 h post-dose,25.6 nmol/g liver
same,EGFP,[8]; Table 24,3.75E+07 pg/g liver
same,EGFP,[8]; Table 25,9.74E+04 pg/g liver
same,EGFP,[8]; Table 26,5.23E+07 pg/g liver
same,EGFP,[8]; Table 27,6.46E+07 pg/g liver
